Results on 109 compounds are retold here after a melting point compilation (Tetko et al.).

Usually melting point stands for the temperature, or range, at which the solid turns liquid.

On to `CC(=O)Nc1ccc(-c2cc(C(=O)O)c3ccccc3n2)cc1`, for which the melting point is 274 to 276 °C.
With `N=C(N)N1CCc2ccccc2C1` the figure was 279 °C; with `CC(C)(C(=O)O)C1=CCC2(C)C(CCC3C4CCC(O)C4(C)CCC32)C1` (centres undefined), 264 °C.
For `CC(C)(C)OOC(C)(C)C` the value was -30 °C; for `COc1cc2c(Cc3ccccc3)cncc2cc1O`, 207 °C.
With `CC1CCC(C(C)C)C(OC(=O)OC2CC(C)CCC2C(C)C)C1` (centres undefined) the figure was 106 °C; with `Clc1ccc(Cc2ccc(Cl)cc2)cc1`, 55.5 °C; with `Nc1c(O)cc(S(=O)(=O)O)c2ccccc12`, 295 °C.
For the compound `CN(C)CC(=O)N1c2ccccc2Sc2ccccc21`, the melting point is 144 °C.
With `O=c1ccocc1` the figure was 32.5 °C; with `CS(=O)(=O)c1ccc(C(=O)CBr)cc1`, 126 to 128 °C; with `O=C(O)CCCc1ccc(F)cc1`, 45 to 47 °C.
For `Oc1c(Br)c(Br)c(O)c(Br)c1Br` the value was 255 to 260 °C; for `CC(C)(C)OC(=O)NC(Cc1cccc(F)c1)C(=O)O` (centres undefined), 78 °C; for `CCN(CC)c1ccc(N)cc1`, 27 °C.
Take `O=Cc1ccc(OCc2c(F)cccc2Cl)cc1`: the melting point is 74 to 78 °C.
With `CCOc1ccc([C@]2(C(=O)N3CCC[C@H](C)[C@@H]3C)CC2(Cl)Cl)cc1` the figure was 160 °C; with `CN(C)c1ccc(C(O)C2C(=O)N(c3ccccc3)N=C2C(F)(F)F)cc1` (centres undefined), 171 °C.
With `CC(C)(C)[Si](Cl)(Cl)Cl` the figure was 98 °C; with `O=C(O)C=Cc1ccc(Oc2ccccc2)nc1`, 204 to 206 °C; with `Cc1nc(-c2cccc(C=O)c2)no1`, 98 to 99 °C.
With `O=C(O)c1ccc(O)nn1` the figure was 246 to 247 °C; with `CC(=O)CCCCC(=O)O`, 35 °C; with `Cc1c(Br)cc([N+](=O)[O-])c(N)c1C`, 153 °C.
Consider `CC(C)(C)OC(=O)N[C@@H](Cc1ccccc1F)C(=O)O`, for which the melting point was 92 to 96 °C.
The compound `C1=CCCCCC1` displayed a melting point of -56 °C.
For `COc1cc(OC)nc(NC(=O)NS(=O)(=O)N(C)S(C)(=O)=O)n1` the value was 179 °C; for `CC(C)(C)c1ccc(C2CCC3(CC2)Cc2ccc(C(=O)n4cc(CCCC(=O)O)c5ccccc54)cc2C3)cc1` (centres undefined), 120 to 150 °C; for `CCCCCCCCCCCCCCCCCC(=O)OC1CCC2(C)C(=CCC3C2CCC2(C)C(C(C)CCCC(C)C)CCC32)C1` (centres undefined), 79 to 83 °C.
With `O=C1c2ccccc2C(=O)N1CCCCCCCCBr` the figure was 49 to 56 °C; with `CC(Oc1ccc(Oc2cnc3cc(Cl)ccc3n2)cc1)C(=O)OCC1CCCO1` (centres undefined), 64 °C.
For `CCCCCC(O)CC(=O)CCc1ccc(OC)c(O)c1` (centres undefined) the value was 31 °C; for `COc1cc(C)c(Cl)cc1S(=O)(=O)Cl`, 127 °C.
As for `ON(Cc1c(F)cccc1Cl)Cc1c(F)cccc1Cl`, the melting point was 169 to 171 °C.
As to `O=C(Nc1ccccc1SC(=O)c1ccccc1)c1ccccc1`, the melting point was 152 °C.
With `Cc1ccccc1N1CSc2nnc(-c3cccnc3)n2C1` the figure was 202 °C; with `CCn1cc(C(=O)O)c(=O)c2cc(F)c(N3CCNCC3)cc21`, 228 °C; with `COc1cc2c(cc1C(C)C)C(=O)C2`, 43 °C.
With `O=C(O)C12CC3CC(C1)CC(C(F)(F)C(F)C(F)(F)F)(C3)C2` (centres undefined) the figure was 115 to 117 °C.
Turning to `COc1cc(O)c2c(=O)c(O)c(-c3ccc(O)c(O)c3)oc2c1`, the melting point was 295 °C.
For `NNC(=O)COc1ccc(OC(F)(F)F)cc1` the value was 130 to 133 °C; for `NS(=O)(=O)C=Cc1ccccc1`, 138 to 140 °C; for `O=Cc1ccc(Br)cn1`, 95 °C.
As to `NC(=NO)c1c(Cl)cccc1Cl`, the melting point lay in the range of 163 to 166 °C.
For `NC(=S)Nc1cccc(F)c1` the value was 113 to 117 °C.
Consider `CCC1NC(=O)c2cc(S(N)(=O)=O)c(Cl)cc2N1` (centres undefined), for which the melting point was found to be 251 °C.
For `OC1CCCCCCC1` the value was 25.1 °C; for `C=C1C(C)C2C(Cc3ccccc3)NC(=O)C23OC(=O)C=CC(=O)CCCC(C)CC=CC3C1O` (centres undefined), 193 to 195 °C.
With `Cc1cccc(/N=N/c2c(N)nn3c(-c4ccccc4)cc(=O)[nH]c23)c1` the figure was 296 °C.
For `c1cc2c(nn1)CCc1nonc1-2` the value was 108 to 110 °C; for `O=C1C=CC(=O)N1c1cccc(N2C(=O)C=CC2=O)c1`, 198 to 204 °C.
For the compound `Cc1nn(-c2cc(NS(C)(=O)=O)c(Cl)cc2Cl)c(=O)n1C(F)F`, the melting point was determined as 122 °C.
With `CC(C)(C)N(NC(=O)c1ccccc1)C(=O)c1cc(Cl)ccc1Cl` the figure was 214 °C; with `O=C(O)C(O)(O)C(O)(O)C(=O)O`, 114 °C; with `C#CCCCCCCCCCCCCCC`, 15 °C.
With `Cc1nn(C)c(Cl)c1S(=O)(=O)O` the figure was 308 to 310 °C; with `Cc1cc(C)c(N)cc1C`, 68 °C; with `CCCOc1c2cccc1Cc1cc(Br)cc(c1O)Cc1cccc(c1OCCC)Cc1cc(Br)cc(c1O)C2`, 307 to 309 °C.
For `CN(C)c1ccc(C=CC(=O)O)cc1` the value was 225 to 228 °C; for `Nc1ccc(CO)cn1`, 120 °C.
In turn, `NC(=S)Nc1ccccc1[N+](=O)[O-]` yielded a melting point of 136 to 137 °C.
For `Cc1ccccc1N1C(=O)c2cc(S(N)(=O)=O)c(Cl)cc2NC1C` (centres undefined) the value was 252 °C.
For `CC(=O)OC1CC2C3CC=C4CC(O)CCC4(C)C3CCC2(C)C1C(C)C1CCC(C)CN1` (centres undefined) the value was 210 °C; for `O=[N+]([O-])c1c(Cl)cccc1-c1c[nH]cc1Cl`, 124 °C; for `COc1ccsc1CN(C(=O)CCl)c1c(C)cccc1C`, 73 °C.
`COC(=O)c1scc(C)c1N` showed a melting point of 86 to 87 °C.
For `CC(=O)c1nn(-c2cccc([N+](=O)[O-])c2)c(=NC(=O)c2ccccc2)s1` the value was 196 °C; for `Oc1cc(C(F)(F)F)nc2ccc(C(F)(F)F)cc12`, 274 to 277 °C; for `COC(=O)c1cccc2cc[nH]c12`, 46 to 47 °C.
For the compound `CCOC(=O)C1=C(C)NC(=O)NC1c1ccccc1[N+](=O)[O-]` (centres undefined), the melting point was found to be 220 °C.
With `NC(=O)OCCCl` the figure was 75.5 °C; with `CCC(CC)(CBr)CBr`, 40 °C; with `Cc1cc(C)c(C)c(S(=O)(=O)NCC(=O)O)c1C`, 167 °C.
With `Nc1ccc2[nH]c(C(F)(F)F)nc2c1` the figure was 188 °C.
The compound `CCOc1ccccc1N` had a melting point of -4 °C.
`CCCCCCCCCCCCCCCCC(C)CC` (centres undefined) had a melting point of 8 °C.
For the compound `O=C1NC(=O)[C@@H]2CC=CC[C@H]12`, the melting point was 131 to 138 °C.
For the compound `CCCCCCCSCCCCCCC`, the melting point worked out at 70 °C.
With `CC(=O)OC1CCC2(C)C(CCC3C4CCC(=NNS(=O)(=O)c5ccc(C)cc5)C4(C)CCC32)C1` (centres undefined) the figure was 222 °C; with `O=C(NO)c1ccc(Cl)cc1O`, 195 to 199 °C; with `CC(=O)c1cnc2ccccc2n1`, 78 °C.
With `O=C(O)CCc1ccccc1Br` the figure was 96 to 98 °C; with `CC1(C)C2CCC(O2)C(Cl)C1O` (centres undefined), 71 to 72 °C; with `CCOC(=O)C(F)(F)C(F)(F)F`, 75.5 °C.
For `C=CCC1=C(OC(C)=O)C2=CC=C3C(C)=C(C)C(=O)CC3(C)C2=C(O)C1=O` (centres undefined) the value was 93 °C.
Compound `O=C(C=Cc1ccc(Br)o1)c1ccco1` registered a melting point of 76 to 78 °C.
With `Clc1ccc(N=Nc2ccccc2)cc1` the figure was 88 °C; with `O=C(O)C(O)n1ccnc1` (centres undefined), 275 °C; with `Brc1ccccc1COc1ccccc1`, 41 to 42 °C.
With `CCc1ccc(O)c(O)c1` the figure was 39 °C.
`CC(C)(C)OC(=O)N1CCN(Cc2ccc(C(=O)O)cc2)CC1` gave a melting point of 196 to 204 °C.
As to `c1ccc(-c2nc3ccccc3[nH]2)cc1`, the melting point is 293 to 296 °C.
For `COc1cc2nnc(/C=C/C(C)=O)c(-c3ccc(C)o3)c2cc1OC` the value was 209 to 210 °C.
With `CN1CCNC(=O)CCSCCC1=O` the figure was 185 to 187 °C; with `Nc1c([N+](=O)[O-])cnc2ccccc12`, 273 to 275 °C.
With `COC(=O)C1CC(=O)C(C(=O)OC)CC1=O` (centres undefined) the figure was 154 to 157 °C.
The compound `Cc1c(C)c(C#N)c2ccccc2c1C#N` returned a melting point of 261 to 264 °C.
For `CC1NC(C(=O)O)Cc2c1[nH]c1ccccc21` (centres undefined) the value was 243 to 245 °C; for `O=Cc1cc(Cl)cc(C=O)c1O`, 119 to 125 °C.
With `C/C=C/C1Nn2c(nnc2-c2ccccc2OC)S1` (centres undefined) the figure was 124 to 126 °C.
Consider `CC(C)(O)C(Cl)(Cl)Cl`, for which the melting point was found to be 97 °C.
With `CSCC[C@H](NC(=O)OCC1c2ccccc2-c2ccccc21)C(=O)O` the figure was 132 to 136 °C.
For `Cc1cccc(CS(=O)(=O)Cl)c1` the value was 48 to 49 °C.
With `C1CCC(N2CCNCC2)CC1` the figure was 28 to 32 °C; with `CN(C)CCN(C)C`, -55 °C; with `Cc1ccc(S(=O)(=O)NN=Cc2coc(C=Cc3ccccc3)n2)cc1`, 177 to 179 °C.
Take `O=C1C(=C2C(=Cc3coc4ccccc4c3=O)C(=O)c3ccccc32)C(=O)c2ccccc21`: the melting point lay within 250 to 251 °C.
In the case of `CCCCOC(=O)C1(O)c2ccccc2-c2ccccc21`, the melting point was 71 °C.
For `COC1CCC=CO1` (centres undefined) the value was 16 °C.
